Laboratory results taken from patent US20240246931A1, “COMPOUNDS AS PD1/PD-L1 INHIBITORS AND METHODS THEREOF” (JUBILANT PRODEL LLC, priority 2021, published 2024).
Counter-ions that a name gives are not always drawn.

Experiments:
PD-1/PD-L1 interaction = target: T1, PD-1/PD-L1 interaction (Homo sapiens, UniProt Q9NZQ7); test: PD-1/PD-L1 HTRF binding assay (CisBio kit); settings: HTRF PD1/PD-L1 inhibition assay
T1 construct: purchased CisBio 63ADK000CPAPEG
Protocol: PD-L1 Enzyme Assay: Homogenous Time-Resolved Fluorescence (HTRF) Binding Assay
All binding studies were performed using PD-1/PD-L1 Binding Assay Kit from CisBio (Catalog #63ADK000CPAPEG), according to the manufacturer's protocol. The interaction between Tag1-PD-1 and […] was detected by anti-Tag1-Eu^3+ (HTRF donor) and anti-Tag2-XL665 (HTRF acceptor). When the donor and acceptor antibodies were brought to close proximity due to PD-1 and PD-L1 binding, excitation of the donor antibody triggered fluorescent resonance energy transfer (FRET) towards the acceptor antibody, which in turn emitted specifically at 665 nm. This specific signal is positively proportional to PD-1/PD-L1 interaction. The compounds blocking PD-1/PD-L1 interaction will cause a reduction in HTRF signal. The necessary reagents were mixed in the following order: 2 μL compounds (or diluents buffer), 4 μL PD-L1 protein, 4 μL PD-1 protein. After an incubation of 15 minutes, 5 μL of anti-Tag1-Eu^3+ and 5 μL of anti-Tag2-XL665 were added. The plate was sealed and incubated at room temperature for 1 h. The fluorescence emission was read at two different wavelengths (665 nm and 620 nm) on a BMG PheraStar® multi-plate reader.
Results were calculated from the 665 nm and 620 nm fluorescence signal and expressed in HTRF ratio=(665 nm/620 nm)×10^4.
Compounds having IC50<100 nM are designated as “A”; 100-500 nM are designated as “B”; and >500 nM are designated as “C” respectively.

[1] = Metabolic stability in human liver microsomes; type: in vitro ADME; settings: human liver microsomes 1.0 mg/mL, compound 1 μM, NADPH, first number of HLM/MLM cell
From the text: (§1) Metabolic Stability in Liver Microsomes
(§2) The purpose of this experiment is to measure the metabolic half-life of NCEs in sub-cellular fractions such as human liver microsomes (HLM) or mouse liver microsomes (MLM). This provides an in vitro means to calculate intrinsic hepatic clearance, and to support the prediction of human pharmacokinetics. This approach has been successfully utilized at early phase of drug discovery projects, to provide SAR input for reducing metabolic instability and for predicting in vivo hepatic clearance.
(§3) Procedure: Potassium phosphate buffer (66.7 mM, pH 7.4) containing liver microsomes (mouse and human) (1.0 mg/mL) was pre-incubated separately with compound (1 μM) and positive control (verapamil, 1 μM) in a 37° C. water bath for 5 min. The reactions were initiated by adding 20 μL of 10 mM NADPH. Reactions without NADPH (0 and 30 min) were also incubated to rule out non-NADPH metabolism or chemical instability in the incubation buffer. All reactions were terminated using 200 μL of ice-cold acetonitrile containing internal standard at 0, 5, 15 and 30 min. The vials were centrifuged at 3000 rpm for 15 min. The supernatants thus obtained were analyzed on LC-MS/MS to monitor the disappearance of test compound.

[2] = Metabolic stability in mouse liver microsomes; type: in vitro ADME; settings: mouse liver microsomes 1.0 mg/mL, compound 1 μM, NADPH, second number of HLM/MLM cell
From the text: as §1, §2, §3

T1 sequence (Q9NZQ7 19-238 limits assumed): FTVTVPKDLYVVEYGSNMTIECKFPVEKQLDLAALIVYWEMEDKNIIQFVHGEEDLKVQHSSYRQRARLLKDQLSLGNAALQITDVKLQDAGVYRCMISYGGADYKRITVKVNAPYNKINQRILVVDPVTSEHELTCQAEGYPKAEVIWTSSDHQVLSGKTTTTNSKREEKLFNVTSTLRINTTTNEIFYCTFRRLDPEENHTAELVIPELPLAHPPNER

Row | IC50 (PD-1/PD-L1 interaction) [nM] | HLM % remaining @ 30 min [1] | MLM % remaining @ 30 min [2] | SMILES
1 | < 100 | 72% | 83% | Cc1c(COc2cc(OCc3cncc(C#N)c3)c(CN3CCCC[C@H]3CO)c3c2CCC3)cccc1-c1ccccc1 [Example 1, (S)-5-(((4-((2-(hydroxymethyl)piperidin-1-yl)methyl)-7-((2-methyl-[1,1′-biphenyl]-3-yl)methoxy)-2,3-dihydro-1H-inden-5-yl)oxy)methyl)nicotinonitrile]
2 | < 100 | 58% | 62% | Cc1c(COc2cc(OCc3cccc(C#N)c3)c(CN3CCCC[C@H]3CO)c3c2CCC3)cccc1-c1ccccc1 [Example 2, (S)-3-(((4-((2-(hydroxymethyl)piperidin-1-yl)methyl)-7-((2-methyl-[1,1′-biphenyl]-3-yl)methoxy)-2,3-dihydro-1H-inden-5-yl)oxy)methyl)benzonitrile]
3 | < 100 | 22% | 14% | N#Cc1cncc(COc2cc(OCc3cccc(-c4ccccc4)c3C#N)c3c(c2CN2CCC[C@H]2CO)CCC3)c1 [Example 3, (S)-5-(((7-((2-cyano-[1,1′-biphenyl]-3-yl)methoxy)-4-((2-(hydroxymethyl)pyrrolidin-1-yl)methyl)-2,3-dihydro-1H-inden-5-yl)oxy)methyl)nicotinonitrile]
4 | < 100 | 20/20% | 20/20% | N#Cc1cccc(COc2cc(OCc3cccc(-c4ccccc4)c3C#N)c3c(c2CN2CCC[C@H]2CO)CCC3)c1 [Example 4, (S)-3-(((6-((3-cyanobenzyl)oxy)-7-((2-(hydroxymethyl)pyrrolidin-1-yl)methyl)-2,3-dihydro-1H-inden-4-yl)oxy)methyl)-[1,1′-biphenyl]-2-carbonitrile]
5 | < 100 | 16% | 13% | N#Cc1cncc(COc2cc(OCc3cccc(-c4ccccc4)c3C#N)c3c(c2CN2CCCC[C@H]2CO)CCC3)c1 [Example 5, (S)-5-(((7-((2-cyano-[1,1′-biphenyl]-3-yl)methoxy)-4-((2-(hydroxymethyl)piperidin-1-yl)methyl)-2,3-dihydro-1H-inden-5-yl)oxy)methyl)nicotinonitrile]
6 | < 100 | 67% | 87% | Cc1c(COc2cc(OCc3cncc(C#N)c3)c(CN3C[C@H](O)C[C@H]3CO)c3c2CCC3)cccc1-c1ccccc1 [Example 6]
7 | < 100 | 66% | 76% | Cc1c(COc2cc(OCc3cccc(C#N)c3)c(CN3CCC[C@H]3CO)c3c2CCC3)cccc1-c1ccccc1 [Example 7, (S)-3-(((4-((2-(hydroxymethyl)pyrrolidin-1-yl)methyl)-7-((2-methyl-[1,1′-biphenyl]-3-yl)methoxy)-2,3-dihydro-1H-inden-5-yl)oxy)methyl)benzonitrile]
8 | < 100 | 61% | 85% | Cc1c(COc2cc(OCc3cncc(C#N)c3)c(CN3CCC[C@H]3CO)c3c2CCC3)cccc1-c1ccccc1 [Example 8, (S)-5-(((4-((2-(hydroxymethyl)pyrrolidin-1-yl)methyl)-7-((2-methyl-[1,1′-biphenyl]-3-yl)methoxy)-2,3-dihydro-1H-inden-5-yl)oxy)methyl)nicotinonitrile]
9 | < 100 | 8% | 21% | Cc1c(COc2cc(OCc3cncc(C#N)c3)c(CN3CCOC[C@H]3CO)c3c2CCC3)cccc1-c1ccccc1 [Example 9, (R)-5-(((4-((3-(hydroxymethyl)morpholino)methyl)-7-((2-methyl-[1,1′-biphenyl]-3-yl)methoxy)-2,3-dihydro-1H-inden-5-yl)oxy)methyl)nicotinonitrile]
10 | < 100 | 69% | 70% | Cc1c(COc2cc(OCc3cncc(C#N)c3)c(CN3CCC3CO)c3c2CCC3)cccc1-c1ccccc1 (stereo not shown) [Example 10, 5-(((4-((2-(hydroxymethyl)azetidin-1-yl)methyl)-7-((2-methyl-[1,1′-biphenyl]-3-yl)methoxy)-2,3-dihydro-1H-inden-5-yl)oxy)methyl)nicotinonitrile]
11 | < 100 | 27% | 25% | N#Cc1c(COc2cc(OCC(F)(F)F)c(CN3CCCC[C@H]3CO)c3c2CCC3)cccc1-c1ccccc1 [Example 23, (S)-3-(((7-((2-(hydroxymethyl)piperidin-1-yl)methyl)-6-(2,2,2-trifluoroethoxy)-2,3-dihydro-1H-inden-4-yl)oxy)methyl)-[1,1′-biphenyl]-2-carbonitrile]
12 | < 100 | 72% | 67% | Cc1c(COc2cc(OCC(F)(F)F)c(CN3CCCC[C@H]3CO)c3c2CCC3)cccc1-c1ccccc1 [Example 24, (S)-(1-((7-((2-methyl-[1,1′-biphenyl]-3-yl)methoxy)-5-(2,2,2-trifluoroethoxy)-2,3-dihydro-1H-inden-4-yl)methyl)piperidin-2-yl)methanol]
13 | > 500 |  |  | Cc1c(COc2cc(OCc3cncc(C#N)c3)c(CN3CCC3CO)c3c2CCC3)cccc1-c1ccc(C(C)(C)C)cc1 (stereo not shown) [Example 75, 5-(((7-((4′-(tert-butyl)-2-methyl-[1,1′-biphenyl]-3-yl)methoxy)-4-((2-(hydroxymethyl)azetidin-1-yl)methyl)-2,3-dihydro-1H-inden-5-yl)oxy)methyl)nicotinonitrile]
14 | 100 to 500 |  |  | Cc1c(COc2cc(OCc3cncc(C#N)c3)c(CN3CCC3CO)c3c2CCC3)cccc1-c1ccc(F)cc1 (stereo not shown) [Example 76, 5-(((7-((4′-fluoro-2-methyl-[1,1′-biphenyl]-3-yl)methoxy)-4-((2-(hydroxymethyl)azetidin-1-yl)methyl)-2,3-dihydro-1H-inden-5-yl)oxy)methyl)nicotinonitrile]
15 | > 500 |  |  | Cc1c(COc2cc(Oc3ccccc3)c(CN3CCC3CO)c3c2CCC3)cccc1-c1ccccc1 (stereo not shown) [Example 78, (1-((7-((2-methyl-[1,1′-biphenyl]-3-yl)methoxy)-5-phenoxy-2,3-dihydro-1H-inden-4-yl)methyl)azetidin-2-yl)methanol]
16 | < 100 |  |  | CNC(=O)NCC1CCCN1Cc1c(OCc2cncc(C#N)c2)cc(OCc2cccc(-c3ccccc3)c2C)c2c1CCC2 (stereo not shown) [Example 80, 1-((1-((5-((5-cyanopyridin-3-yl)methoxy)-7-((2-methyl-[1,1′-biphenyl]-3-yl)methoxy)-2,3-dihydro-1H-inden-4-yl)methyl)pyrrolidin-2-yl)methyl)-3-methylurea formate]

Row | SMILES | IC50 (PD-1/PD-L1 interaction) [nM] | HLM % remaining @ 30 min [1] | MLM % remaining @ 30 min [2]
17 | Cc1c(COc2cc(OCc3cncc(C#N)c3)c(CN3CC4(CCC3CO)CC4)c3c2CCC3)cccc1-c1ccccc1 (stereo not shown) [Example 11, 5-(((4-((6-(hydroxymethyl)-5-azaspiro[2.5]octan-5-yl)methyl)-7-((2-methyl-[1,1′-biphenyl]-3-yl)methoxy)-2,3-dihydro-1H-inden-5-yl)oxy)methyl)nicotinonitrile] | < 100 | 21% | 11%
18 | Cc1c(COc2cc(OCc3cncc(C#N)c3)c(CN3CC4(CC4)C[C@H]3CO)c3c2CCC3)cccc1-c1ccccc1 [Example 25, (S)-5-(((4-((6-(hydroxymethyl)-5-azaspiro[2.4]heptan-5-yl)methyl)-7-((2-methyl-[1,1′-biphenyl]-3-yl)methoxy)-2,3-dihydro-1H-inden-5-yl)oxy)methyl)nicotinonitrile] | < 100 | 45% | 61%
19 | N#Cc1cncc(COc2cc(OCc3cccc(-c4ccccc4)c3C#N)c3c(c2CN2CC4(CC4)C[C@H]2CO)CCC3)c1 [Example 26, (S)-5-(((7-((2-cyano-[1,1′-biphenyl]-3-yl)methoxy)-4-((6-(hydroxymethyl)-5-azaspiro[2.4]heptan-5-yl)methyl)-2,3-dihydro-1H-inden-5-yl)oxy)methyl)nicotinonitrile] | < 100 | 6% | 5%
